The text below walks through data of article PMC6927813 (Science (New York, N.Y.), 2019).

Data set [1] concerns the target T1, ParBP1 (Punavirus P1, UniProt Q38420).
T1 sequence (Q38420 1-333): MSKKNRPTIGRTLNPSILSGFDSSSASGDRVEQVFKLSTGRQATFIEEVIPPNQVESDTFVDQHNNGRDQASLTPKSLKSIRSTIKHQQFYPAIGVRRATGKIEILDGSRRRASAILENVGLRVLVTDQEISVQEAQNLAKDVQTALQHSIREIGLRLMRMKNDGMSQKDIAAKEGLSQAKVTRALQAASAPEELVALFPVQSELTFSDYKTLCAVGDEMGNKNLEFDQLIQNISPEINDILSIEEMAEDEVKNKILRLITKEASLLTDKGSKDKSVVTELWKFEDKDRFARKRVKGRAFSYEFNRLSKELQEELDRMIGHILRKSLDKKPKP
Kind of data set: membrane-spotting assay, radiolabelled nucleotide. The format is binding. The following applies: labelled compound.

Data set [2] concerns the target T2, ParBF (Escherichia coli, UniProt P62558).
T2 sequence (P62558 1-323): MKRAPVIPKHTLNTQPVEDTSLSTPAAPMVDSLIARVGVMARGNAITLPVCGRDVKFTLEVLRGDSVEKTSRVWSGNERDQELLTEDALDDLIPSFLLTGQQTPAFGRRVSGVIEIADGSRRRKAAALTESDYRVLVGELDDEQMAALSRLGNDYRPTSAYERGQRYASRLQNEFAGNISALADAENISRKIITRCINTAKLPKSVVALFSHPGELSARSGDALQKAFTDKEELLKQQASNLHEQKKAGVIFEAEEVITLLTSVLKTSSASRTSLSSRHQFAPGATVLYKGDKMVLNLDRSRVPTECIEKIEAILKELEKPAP
The data set can be described thus: membrane-spotting assay, radiolabelled nucleotide. The following applies: labelled compound. It counts as binding.

In data set [3] the target is T3, ParBBsu (full-length) (Bacillus subtilis, UniProt P26497).
T3 sequence (P26497 1-282): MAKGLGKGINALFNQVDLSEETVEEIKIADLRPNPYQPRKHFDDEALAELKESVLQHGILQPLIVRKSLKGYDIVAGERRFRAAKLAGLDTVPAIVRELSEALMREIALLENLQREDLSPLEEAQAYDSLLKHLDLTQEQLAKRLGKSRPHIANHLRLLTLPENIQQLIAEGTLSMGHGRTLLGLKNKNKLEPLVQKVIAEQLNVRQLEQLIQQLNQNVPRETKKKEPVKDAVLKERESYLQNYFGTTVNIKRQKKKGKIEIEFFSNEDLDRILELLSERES
The data set can be described thus: isothermal titration calorimetry. It counts as binding. In general terms: In ITC the heat of successive injections is recorded.

Data set [4] concerns the molecule itself. The data set can be described thus: cross-linking.
Data set [5] concerns the molecule itself. Kind of data set: crystal structure.

Numbering of substitutions follows the chain as printed. Names may count otherwise.

Regarding `Nc1ccn([C@@H]2O[C@H](COP(=O)(O)OP(=O)(O)OP(=O)(O)O)[C@@H](O)[C@H]2O)c(=O)n1` [CTP], the “membrane-spotting assay, radiolabelled nucleotide” value is “plasmid-encoded ParB proteins (F plasmid ParBF and P1 prophage ParBP1)” in data set [1]; “CTP was also bound by plasmid-encoded ParB proteins (F plasmid ParBF” in data set [2]. Further, the Kd – broadly, the equilibrium constant for the complex coming apart – in data set [3] was 10 to 50 µM.

B1: ParBBsu(T22C) (natural protein)
chain: T3 sequence (P26497 1-282) with T22C
As to B1, the binding result in data set [4] was “binds”.

B2: ParBBsu(T22C, S278C) (natural protein)
chain: T3 sequence (P26497 1-282) with T22C, S278C
With B2, in data set [4], the stoichiometry N (commonly a count of units in the complex or per binding partner) is 2.

B3: ParBBsu(21-218) (domain or fragment)
chain: ETVEEIKIADLRPNPYQPRKHFDDEALAELKESVLQHGILQPLIVRKSLKGYDIVAGERRFRAAKLAGLDTVPAIVRELSEALMREIALLENLQREDLSPLEEAQAYDSLLKHLDLTQEQLAKRLGKSRPHIANHLRLLTLPENIQQLIAEGTLSMGHGRTLLGLKNKNKLEPLVQKVIAEQLNVRQLEQLIQQLNQN
As to B3, in data set [5], the binding result was “binds”.
